Data on six molecules can be found in US11183645B2, “Organic thin film and method for manufacturing organic thin film, organic electroluminescence element, display device, illumination device, organic thin film solar cell, thin film transistor, and coating composition” (NIPPON HOSO KYOKAI, priority 2015, dated 2021).

A short description of this data set: acid dissociation constant pKa of the first material. Particulars: for pKa (H2O): acid dissociation constant in water, first materials of the electron injection layer.

Structures are written as SMILES. Read-outs that look alike come from different tables or passages of the source.

In general, pKa refers to the pH at which an ionisable group is half protonated. Read a low pKa as a group that gives up its proton readily.

Text: In the present invention, the “pKa” usually means the “acid dissociation constant in water”. When the pKa cannot be measured in water, it means the “acid dissociation constant in dimethyl sulfoxide (DMSO)”, and when the pKa cannot be measured even in DMSO, it means the “acid dissociation constant in acetonitrile”. The pKa preferably means the “acid dissociation constant in water”.

In turn, `CN(C)c1ccc2cc3ccc(N(C)C)cc3nc2c1` [AOB, acridine orange] had a pKa of at least 1.

For `C1=Cc2ccccc2C1` [indene], the pKa was at least 1.

As to `C1CCC2=NCCCN2CC1` [DBU, 1,8-diazabicyclo[5.4.0]undecene-7], the “pKa (H2O)” value was found to be 12.5.

As for `CN(C)P(=NC(C)(C)C)(N=P(N(C)C)(N(C)C)N(C)C)N(C)C` [Phosphazene base P2-t-Bu], the “pKa (H2O)” value came out at 20.

For `COc1cccnc1` [3-MeOP, 3-methoxypyridine], the pKa (water) is 4.88.

For `CN(C)c1ccncc1` [4-DMAP, 4-dimethylaminopyridine], the pKa (water) came out at 9.7.
